According to patent US20110091931A1, “Methods and Kits for Determining Oxygen Free Radical (OFR) Levels in Animal and Human Tissues as a Prognostic Marker for Cancer and Other Pathophysiologies” (COLBY PHARMACEUTICAL COMPANY, priority 2009, published 2011):

Tests used:
prostate cancer cells = details: cited from earlier work
androgen receptor = target: T1, androgen receptor (Homo sapiens, UniProt P10275, T878A); details: human LNCaP prostate cancer cells; cited from earlier work
T1 construct: androgen receptor in human LNCaP prostate cancer cells in laboratory studies; host or cells: LNCaP
T1 sequence (P10275 1-920 T878A): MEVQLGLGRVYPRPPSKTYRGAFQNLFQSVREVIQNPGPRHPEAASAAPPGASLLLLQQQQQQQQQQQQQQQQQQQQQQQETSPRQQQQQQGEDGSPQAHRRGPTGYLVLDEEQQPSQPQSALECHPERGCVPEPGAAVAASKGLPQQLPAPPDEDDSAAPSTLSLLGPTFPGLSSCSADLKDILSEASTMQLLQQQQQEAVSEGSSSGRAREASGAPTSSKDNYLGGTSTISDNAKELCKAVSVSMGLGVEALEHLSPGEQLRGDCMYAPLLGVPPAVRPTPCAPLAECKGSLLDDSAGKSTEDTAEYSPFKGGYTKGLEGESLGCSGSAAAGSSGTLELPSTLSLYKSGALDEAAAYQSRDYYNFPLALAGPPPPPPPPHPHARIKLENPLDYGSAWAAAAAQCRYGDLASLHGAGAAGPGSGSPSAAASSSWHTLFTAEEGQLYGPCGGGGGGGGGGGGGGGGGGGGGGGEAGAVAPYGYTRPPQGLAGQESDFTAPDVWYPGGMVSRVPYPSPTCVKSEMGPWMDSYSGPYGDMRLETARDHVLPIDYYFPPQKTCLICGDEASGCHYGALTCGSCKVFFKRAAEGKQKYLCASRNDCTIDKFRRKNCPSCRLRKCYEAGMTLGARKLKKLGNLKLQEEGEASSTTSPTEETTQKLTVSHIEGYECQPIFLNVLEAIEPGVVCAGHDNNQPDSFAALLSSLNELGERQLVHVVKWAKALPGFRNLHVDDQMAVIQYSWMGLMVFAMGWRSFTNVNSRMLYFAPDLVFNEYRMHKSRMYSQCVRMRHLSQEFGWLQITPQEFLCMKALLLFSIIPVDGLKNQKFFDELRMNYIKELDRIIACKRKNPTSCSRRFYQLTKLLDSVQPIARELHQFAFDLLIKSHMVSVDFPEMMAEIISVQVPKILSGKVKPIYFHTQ

[1] = test system: cytochrome P450 (CYP) class of enzymes; details: compared with I3C; cited from earlier work
[2] = in vivo, iv

SMILES | PSA (prostate cancer cells) | proliferation of prostate cancer cells (prostate cancer cells; in vitro and in a mouse xenograft model) | androgen receptor activation (androgen receptor) | binding of dihydrotestosterone (DHT) to the androgen receptor (androgen receptor) | induction of cytochrome P450 (CYP) class of enzymes [1] | safety of i.v. injection [2]
c1ccc2c(Cc3c[nH]c4ccccc34)c[nH]c2c1 [DIM, 3,3′-Diindolylmethane] | downregulation of PSA | inhibition of proliferation | block androgen receptor activation | decreased binding | to a lesser extent than does I^3C | 
CCN1c2cc(N)ccc2-c2ccc(N)cc2C1c1ccccc1 (stereo not drawn) [HEt, hydroethidine] |  |  |  |  |  | can be safely injected i.v.
